Measured values: patent US20210108198A1, “APPLICATION OF COMPOUND OR TRADITIONAL CHINESE MEDICINE EXTRACT IN PREPARATION OF NUCLEIC ACID DELIVERY AGENT AND RELATED PRODUCTS THEREOF” (INSTITUTE OF BASIC MEDICAL SCIENCES CHINESE ACADEMY OF …, priority 2017, published 2021)

System: A549 cells
Test: Digital PCR (ddPCR) detection of the efficiency of nucleic acid delivery by lipid
Format: cell-based, human
Settings: reverse evaporation method; 6 hours (No. 39: 6 hours, 12 hours)
Experimental: (§1) 2.2 Experimental method: the total cellular RNA was collected and extracted by TRIzol lysis buffer according to the above methods, and reverse transcribed to cDNA using High capacity cRNA Reverse Transcription Kit, and the cDNA from different groups was subject to digital PCR reaction. Refering to the QX200 Droplet Reader and QuantaSoft Software manual for the protocols, the results were analyzed using QuantaSoft software.
as §1, with “method:” for “method: the”, “total” for “total cellular”, “method,” for “methods,”, “subjected” for “subject”, “Refer” for “Refering”, “protocols;” for “protocols,”
(§2) 2.2 Experimental method: Total RNA was collected and extracted by TRIzol lysis buffer according to the above method, and reverse transcribed to cDNA using TaqMan™ MicroRNA Reverse Transcription KitHigh, and the cDNA from different groups was subjected to digital PCR reaction. Refer to the QX200 Droplet Reader and QuantaSoft Software manual for the protocols; the results were analyzed using QuantaSoft software.
as §2, with “reversed” for “reverse transcribed”, “High capacity cRNA” for “TaqMan™ MicroRNA”, “Kit,” for “KitHigh,”

## CCCCCC/C=C\CCCCCCCCCC(=O)O[C@H](COC(=O)CCCCCCC/C=C\CCCCCC)COP(=O)(O)OCCN [No. 39, (2-aminoethoxy)[(2R)-3-[(9Z)-hexadec-9-enoyloxy]-2-[(11Z)-octadec-11-enoyloxy]propoxy] phosphinic acid]
  delivery of HJT-sRNA-m7 dsRNA (ddPCR): could effectively deliver HJT-sRNA-m7 dsRNA into A549 cells
